Source: US9447044B2, “Thioaryl derivatives as GPR120 agonists” (LG LIFE SCIENCES LTD., priority 2012, dated 2016)

Each compound was assayed against T1, hGPR120 (Homo sapiens, UniProt Q5NUL3) (assay: Measurement of activity of GPR120 agonist (cell-based assay), calcium fluorescence). Conditions: CHO-K1 cells expressing Ga16 and hGPR120; Calcium 5 dye fluorescence; activity class.
T1 construct: expressed in transfected cells; host or cells: CHO-K1
T1 sequence (Q5NUL3 1-361): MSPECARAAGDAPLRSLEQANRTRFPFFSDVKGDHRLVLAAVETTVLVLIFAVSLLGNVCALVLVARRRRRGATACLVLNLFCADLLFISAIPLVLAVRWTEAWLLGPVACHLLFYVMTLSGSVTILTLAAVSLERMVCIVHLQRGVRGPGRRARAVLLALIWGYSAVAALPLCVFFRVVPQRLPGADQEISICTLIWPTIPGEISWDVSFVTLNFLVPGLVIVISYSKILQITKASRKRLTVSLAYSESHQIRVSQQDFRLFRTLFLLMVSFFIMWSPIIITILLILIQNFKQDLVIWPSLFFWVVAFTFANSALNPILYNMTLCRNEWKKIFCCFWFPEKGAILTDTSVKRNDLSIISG
Method: CHO-K1 cells expressing Ga16 and hGPR120 were dispensed into each well of a 96-well plate (3×10^4 cells/100 μl/well) and then incubated in 5% CO2, 37° C. incubator for 18 hours. Each well was treated with 100 μl of Calcium 5 dye (Molecular Devices) solution including 2% DMSO and then incubated in 5% CO2, 37° C. incubator for 1 hour. Serially diluted GPR120 agonists were prepared to a final concentration of 0.5% DMSO in a 96-well plate. Each well was treated with 50 μl of the agonist compounds using Plexstation II, and then fluorescence was measured at Ex 485 nm, Em 525 nm.
Fluorescence increased by the serially diluted GPR120 agonists is calculated as a relative percent (%) value based on the fluorescence represented by the treatment of 0.1% DMSO only. […] The calculation of measurement was carried out by using statistical software (Prizm).
Activity is denoted based on the following criteria: A=>20 μM, B=[…], C=2˜0.2 μM, D=<0.2 μM

Row | Structure (SMILES) | EC50
1 | O=C(O)C1CC1c1ccc(OCc2cccnc2SC2CCC2)c(Cl)c1 (single isomer, unassigned) [Example 124, 2-[3-chloro-4-(2-cyclobutylsulfanyl-pyridin-3-ylmethoxy)-phenyl]-cyclopropane carboxylic acid] | 200 to 2000 nM
2 | O=C(O)C1CC1c1ccc(OCc2cccnc2SC2CCC2)c(Cl)c1 (single isomer, unassigned) [Example 125, 2-[3-chloro-4-(2-cyclobutylsulfanyl-pyridin-3-ylmethoxy)-phenyl]-cyclopropane carboxylic acid] | < 200 nM
3 | O=C(O)C1CC1c1ccc(OCc2cccnc2SC2CCCC2)c(F)c1 (single isomer, unassigned) [Example 130, 2-[4-(2-cyclopentylsulfanyl-pyridin-3-ylmethoxy)-3-fluoro-phenyl]-cyclopropane carboxylic acid] | 200 to 2000 nM
4 | CC(C)Sc1cccc(COc2ccc(C3CC3C(=O)O)cc2F)n1 (single isomer, unassigned) [Example 131, 2-[3-fluoro-4-(6-isopropylsulfanyl-pyridin-2-ylmethoxy)-phenyl]-cyclopropane carboxylic acid] | 200 to 2000 nM
5 | CCCSc1ncccc1COc1ccc(C2CC2C(=O)O)cc1F (single isomer, unassigned) [Example 163, 2-[3-fluoro-4-(2-propylsulfanyl-pyridin-3-ylmethoxy)-phenyl]-cyclopropane carboxylic acid] | < 200 nM
6 | O=C(O)C1CC1c1ccc(OCc2cccc(SC3CCCC3)n2)c(F)c1 (single isomer, unassigned) [Example 168, 2-[4-(6-cyclopentylsulfanyl-pyridin-2-ylmethoxy)-3-fluoro-phenyl]-cyclopropane carboxylic acid] | < 200 nM
7 | CC(C)Sc1ncccc1COc1c(F)cc(CCC(=O)O)cc1F [Example 1, 3-[3,5-difluoro-4-(2-isopropylsulfanyl-pyridin-3-ylmethoxy)-phenyl]-propionic acid] | < 200 nM
8 | CC(C)Sc1ncccc1COc1ccc(CCC(=O)O)cc1 [Example 2, 3-[4-(2-isopropylsulfanyl-pyridin-3-ylmethoxy)-phenyl]-propionic acid] | < 200 nM
9 | Cc1cnc(SC(C)C)c(COc2ccc(CC(C)C(=O)O)cc2)c1 (stereo not shown) [Example 3, 3-[4-(2-isopropylsulfanyl-5-methyl-pyridin-3-ylmethoxy)-phenyl]-2-methyl-propionic acid] | 200 to 2000 nM
10 | Cc1cnc(SC(C)C)c(COc2ccc(CCC(=O)O)cc2)c1 [Example 5, 3-[4-(2-isopropylsulfanyl-5-methyl-pyridin-3-ylmethoxy)-phenyl]-propionic acid] | < 200 nM
11 | CC(C)Sc1ncccc1COc1ccc(CCC(=O)O)cc1F [Example 6, 3-[3-fluoro-4-(2-isopropylsulfanyl-pyridin-3-ylmethoxy)-phenyl]-propionic acid] | < 200 nM
12 | CC(C)Sc1ncccc1COc1ccc(CCC(=O)O)c(F)c1 [Example 7, 3-[2-fluoro-4-(2-isopropylsulfanyl-pyridin-3-ylmethoxy)-phenyl]-propionic acid] | < 200 nM
13 | CC(C)CSc1ncccc1COc1c(F)cc(CCC(=O)O)cc1F [Example 11, 3-[3,5-difluoro-4-(2-isobutylsulfanyl-pyridin-3-ylmethoxy)-phenyl]-propionic acid] | < 200 nM
14 | CC(C)Sc1ncccc1COc1ccc(CCCC(=O)O)cc1 [Example 13, 4-[4-(2-isopropylsulfanyl-pyridin-3-ylmethoxy)-phenyl]-butyric acid] | < 200 nM
15 | O=C(O)CCc1cc(F)c(OCc2cccnc2SCC2CC2)c(F)c1 [Example 17, 3-[4-(2-cyclopropylmethylsulfanyl-pyridin-3-ylmethoxy)-3,5-difluoro-phenyl]-propionic acid] | < 200 nM

The next lines start with the values.

Row | EC50 | Structure (SMILES)
16 | < 200 nM | CCCSc1ncccc1COc1ccc(C2CC2C(=O)O)cc1F (single isomer, unassigned) [Example 119, 2-[3-fluoro-4-(2-propylsulfanyl-pyridin-3-ylmethoxy)-phenyl]-cyclopropane carboxylic acid]
17 | 200 to 2000 nM | O=C(O)C1CC1c1ccc(OCc2cccnc2SCC2CC2)c(F)c1 (single isomer, unassigned) [Example 129, 2-[4-(2-cyclopropylmethylsulfanyl-pyridin-3-ylmethoxy)-3-fluoro-phenyl]-cyclopropane carboxylic acid]
18 | 200 to 2000 nM | O=C(O)C1CC1c1ccc(OCc2cccnc2SC2CCC2)c(F)c1 (single isomer, unassigned) [Example 133, 2-[4-(2-cyclobutylsulfanyl-pyridin-3-ylmethoxy)-3-fluoro-phenyl]-cyclopropane carboxylic acid]
19 | < 200 nM | O=C(O)C1CC1c1ccc(OCc2cccc(SC3CCCC3)n2)c(F)c1 (single isomer, unassigned) [Example 134, 2-[4-(6-cyclopentylsulfanyl-pyridin-2-ylmethoxy)-3-fluoro-phenyl]-cyclopropane carboxylic acid]
20 | 200 to 2000 nM | O=C(O)C1CC1c1cc(F)c(OCc2cccnc2SCC2CC2)c(F)c1 (single isomer, unassigned) [Example 136, 2-[4-(2-cyclopropylmethylsulfanyl-pyridin-3-ylmethoxy)-3,5-difluoro-phenyl]-cyclopropane carboxylic acid]
21 | < 200 nM | O=C(O)C1CC1c1cc(F)c(OCc2cccnc2SCC2CC2)c(F)c1 (single isomer, unassigned) [Example 137, 2-[4-(2-cyclopropylmethylsulfanyl-pyridin-3-ylmethoxy)-3,5-difluoro-phenyl]-cyclopropane carboxylic acid]
22 | < 200 nM | O=C(O)C1CC1c1ccc(OCc2cccnc2SC2CCCC2)c(F)c1 (single isomer, unassigned) [Example 164, 2-[4-(2-cyclopentylsulfanyl-pyridin-3-ylmethoxy)-3-fluoro-phenyl]-cyclopropane carboxylic acid]
23 | < 200 nM | O=C(O)C1CC1c1ccc(OCc2cccnc2SCC2CC2)c(F)c1 (single isomer, unassigned) [Example 165, 2-[4-(2-cyclopropylmethylsulfanyl-pyridin-3-ylmethoxy)-3-fluoro-phenyl]-cyclopropane carboxylic acid]
24 | < 200 nM | CC(C)Sc1cccc(COc2ccc(C3CC3C(=O)O)cc2F)n1 (single isomer, unassigned) [Example 166, 2-[3-fluoro-4-(6-isopropylsulfanyl-pyridin-2-ylmethoxy)-phenyl]-cyclopropane carboxylic acid]
25 | < 200 nM | O=C(O)C1CC1c1ccc(OCc2cccnc2SC2CCC2)c(F)c1 (single isomer, unassigned) [Example 169, 2-[4-(2-cyclobutylsulfanyl-pyridin-3-ylmethoxy)-3-fluoro-phenyl]-cyclopropane carboxylic acid]
26 | 200 to 2000 nM | CC(C)Sc1ncccc1COc1ccc(CC(C)C(=O)O)cc1 (stereo not shown) [Example 4, 3-[4-(2-isopropylsulfanyl-pyridin-3-ylmethoxy)-phenyl]-2-methyl-propionic acid]
27 | < 200 nM | Cc1ccc(COc2c(F)cc(CCC(=O)O)cc2F)c(SC(C)C)n1 [Example 9, 3-[3,5-difluoro-4-(2-isopropylsulfanyl-6-methyl-pyridin-3-ylmethoxy)-phenyl]-propionic acid]
28 | < 200 nM | CCSc1ncccc1COc1c(F)cc(CCC(=O)O)cc1F [Example 10, 3-[4-(2-ethylsulfanyl-pyridin-3-ylmethoxy)-3,5-difluoro-phenyl]-propionic acid]
29 | < 200 nM | CCCSc1ncccc1COc1c(F)cc(CCC(=O)O)cc1F [Example 14, 3-[3,5-difluoro-4-(2-propylsulfanyl-pyridin-3-ylmethoxy)-phenyl]-propionic acid]
30 | 200 to 2000 nM | O=C(O)CCc1cc(F)c(OCc2cccnc2Sc2ccccc2)c(F)c1 [Example 15, 3-[3,5-difluoro-4-(2-phenylsulfanyl-pyridin-3-ylmethoxy)-phenyl]-propionic acid]
31 | < 200 nM | CC(C)(C)Sc1ncccc1COc1c(F)cc(CCC(=O)O)cc1F [Example 16, 3-[4-(2-t-butylsulfanyl-pyridin-3-ylmethoxy)-3,5-difluoro-phenyl]-propionic acid]

Same assay, conditions: CHO-K1 cells expressing Ga16 and hGPR120; Calcium 5 dye fluorescence; numeric value

Row | EC50 | Structure (SMILES)
32 | 27 nM | O=C(O)C1CC1c1ccc(OCc2cccc(SC3CCC3)n2)c(F)c1 (single isomer, unassigned) [Example 135, 2-[4-(6-cyclobutylsulfanyl-pyridin-2-ylmethoxy)-3-fluoro-phenyl]-cyclopropane carboxylic acid]
33 | 6 nM | O=C(O)C1CC1c1ccc(OCc2cccc(SC3CCC3)n2)c(F)c1 (single isomer, unassigned) [Example 167, 2-[4-(6-cyclobutylsulfanyl-pyridin-2-ylmethoxy)-3-fluoro-phenyl]-cyclopropane carboxylic acid]
34 | 58 nM | O=C(O)CCc1cc(F)c(OCc2cccnc2SC2CCCC2)c(F)c1 [Example 12, 3-[4-(2-cyclopentylsulfanyl-pyridin-3-ylmethoxy)-3,5-difluoro-phenyl]-propionic acid]
